Assay results published in publication PMC7906334, “The cell surface protein MUL_3720 confers binding of the skin pathogen Mycobacterium ulcerans to sulfated glycans and keratin” (PLoS Neglected Tropical Diseases, 2021).

biological target: T1, MUL_3720 (Mycobacterium ulcerans, UniProt A0PU23); test: glycan array (fluorescence); format: binding; settings: glycan printed on slide via spacer; 1 mM CaCl2 and 1 mM MgCl2 PBS printed for the cell arrays
T1 construct: full length aa 1-207 in pET28a, recombinant, purified; 22 kDa; the MUL_ locus tags are those of strain Agy99
Description: glycan array (fluorescence) on MUL_3720

Compound | fold change in fluorescence binding signal [fold]
3,6-O-Su2-Galβ1-4(6-O-Su)GlcNAcβ-sp2 [compound 189] | 2.46±0.56
3,6-O-Su2-Galβ1-4GlcNAcβ-sp2 [compound 182] | 3.29±1.77
4,6-O-Su2-GalNAcβ1-4-(3-O-Ac)GlcNAcβ-sp3 [compound 199] | 2.45±0.87
6-O-Su-Galβ1-3(6-O-Su)GlcNAcβ-sp2 [compound 179] | 1.48±0.33
6-O-Su-Galβ1-3GalNAcα-sp3 [compound 151] | 2.44±0.88
6-O-Su-Galβ1-3GlcNAcβ-sp3 [compound 161] | 2.49±0.26
CC(=O)N[C@H]1[C@H](OCCCN)O[C@H](CO)[C@@H](O[C@@H]2O[C@H](CO)[C@H](OS(=O)(=O)O)[C@H](OS(=O)(=O)O)[C@H]2O)[C@@H]1O [compound 201, 3,4-O-Su2-Galβ1-4GlcNAcβ-sp3] | 1.52±0.64

biological target: T1, MUL_3720; test: SPR (Biacore T200); format: binding; settings: read-out: MUL_3720; protein amine-immobilised on CM5 chip, free glycan as analyte

Compound | Kd [nM]
CC(=O)N[C@H]1C(O)O[C@H](CO)[C@@H](O[C@@H]2O[C@@H](C)[C@@H](O)[C@@H](O)[C@@H]2O)[C@@H]1O[C@@H]1O[C@H](CO)[C@H](O)[C@H](OS(=O)(=O)O)[C@H]1O[C@@H]1O[C@@H](C)[C@@H](O)[C@@H](O)[C@@H]1O (stereo partly shown) [Fucα1-2(3-O-Su)Galβ1-3(Fucα1–4)GlcNAc] | 17400 ± 1900
CC(=O)N[C@H]1C(O)O[C@H](COS(=O)(=O)O)[C@H](O)[C@@H]1O[C@@H]1OC(C(=O)O)=C[C@H](O)[C@H]1O (stereo partly drawn) [chondroitin 6S-disaccharide ΔUAα 1-3GalNAc-6S] | 99.2 ± 35

biological target: MUL_3720 (Mycobacterium ulcerans) (UniProt A0PU23); test: SPR; Biacore T200; MUL_3720 immobilised on a CM5 chip at pH 4.5 (5 uL/min, 600 s), ethanolamine blank flow cell as control; keratin extract flowed between 2 nM and 20 uM; double reference subtracted; settings: not given

Compound | Kd [nM]
keratin isolated from human epidermis (mixed keratins with average molecular weight of 64.1 kDa) | 4.78
